Data on one molecule can be found in article PMC7594840, “Identification of histone deacetylase inhibitors with (arylidene)aminoxy scaffold active in uveal melanoma cell lines” (Journal of Enzyme Inhibition and Medicinal Chemistry, 2020).

SMILES strings stand for the structures.

Experiment [1] concerns HeLa nuclear extract containing a mixture of HDACs. Nature of the experiment: HDAC Fluorimetric Assay/Drug Discovery Kit (BIOMOL) on HeLa nuclear extract. It counts as biochemical.
Description: The hydroxamic acids 1a–c, 2a–f and carboxylic acids 3a–c, 4a––e synthesised in this study were preliminarily tested on a HeLa nuclear extract containing a mixture of HDACs, by using a commercially available HDAC assay kit (BIOMOL). SAHA and Trichostatin A (TSA) were used as positive controls.
HDAC inhibitory activity of newly synthesised compounds was evaluated using an HDAC Fluorimetric Assay/Drug Discovery Kit (AK-500, BIOMOL). […] Reactions were stopped after 30 min by adding Fluor de Lys^TM Developer. After the addition of this developer, the plate was incubated at room temperature for 15 min, the fluorescence intensity of the wells was measured on a fluorometric plate reader with excitation set at 360 nm and emission detection set at 460 nm.
The target of experiment [2] is T1, HDAC1 (Homo sapiens, UniProt Q13547).
T1 construct: purchased BPS Bioscience
The experiment can be described thus: Microfluidic chip-based HDAC inhibition assay (Calliper off-chip mobility shift), HDAC1. It is filed as biochemical. The conditions noted are these: duplicate, 10-point dose curve, 3-fold serial dilution from 30 μM.
Excerpt: (§11) Test compounds were screened against human histone deacetylases (HDACs) 1, 3, 6, and 8 using the Calliper off-chip mobility shift assay technology. All HDACs were purchased from BPS Bioscience and four selective substrates were used according to the targeted isozyme. […] Buffers components, except for CR-3 (LabChip Coating Reagent 3, purchased from PerkinElmer, Product Number 760050) and Panobinostat (LBH589, purchased from ApexBio Technology)[35]^,[36] were purchased from Sigma Aldrich. […] (all purchased from Selleck Chemicals).

The target in experiment [3] is T2, HDAC3 (Homo sapiens, UniProt O15379).
T2 construct: purchased BPS Bioscience
Nature of the experiment: Microfluidic chip-based HDAC inhibition assay (Calliper off-chip mobility shift), HDAC3. It is filed as biochemical. The conditions noted are these: duplicate, 10-point dose curve, 3-fold serial dilution from 30 μM; SAHA 15-point dose curve.
Excerpt: as §11

Experiment [4] deals with T3, HDAC8 (Homo sapiens, UniProt Q9BY41).
T3 construct: purchased BPS Bioscience
T3 sequence (Q9BY41 1-377): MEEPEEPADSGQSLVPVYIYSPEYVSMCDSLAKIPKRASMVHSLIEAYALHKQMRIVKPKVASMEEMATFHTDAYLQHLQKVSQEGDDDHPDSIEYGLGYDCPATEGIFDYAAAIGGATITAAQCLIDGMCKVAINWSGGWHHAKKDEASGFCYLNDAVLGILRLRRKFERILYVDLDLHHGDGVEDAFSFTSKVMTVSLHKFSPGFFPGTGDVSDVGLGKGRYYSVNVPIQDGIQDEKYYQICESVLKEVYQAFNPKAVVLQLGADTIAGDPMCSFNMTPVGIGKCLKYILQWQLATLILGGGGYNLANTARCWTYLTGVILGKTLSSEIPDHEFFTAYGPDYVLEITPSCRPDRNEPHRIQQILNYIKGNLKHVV
The experiment can be described thus: Microfluidic chip-based HDAC inhibition assay (Calliper off-chip mobility shift), HDAC8. It counts as biochemical. The conditions noted are these: duplicate, 10-point dose curve, 3-fold serial dilution from 30 μM.
Excerpt: as §11

In experiment [5] the test system is 92.1 cells. Nature of the experiment: MTT cell viability assay, UM cell line 92.1. It counts as cell-based, human. The conditions noted are these: 72 h treatment, compared with SAHA and LD10. How it is done: (§1) The anti-proliferative effects of the most promising HDAC inhibitors, VS16, VS13, SN2, and LD10 were evaluated on human UM cell lines (92.1 and Mel270) and SAHA was used as a positive control. First, we assessed by MTT assay the cell viability after a 72 h treatment at different concentrations. […] Similar results were found for ovarian carcinoma cell line A2780 and to a lesser extent for SKOV3 (Supplementary Figure S2).
(§2) Figure 7. MTT. In vitro cytotoxicity at the 72 h time point of the different compounds in human UM cell lines 92.1 and Mel270, as assessed by the MTT cell viability assay. Data are expressed as percent of control with the DMSO solvent, which was used at the same amount present in the highest compound concentration. Error bars represent SD of quadruplicates. One representative experiment is shown.
(§3) Treatments with the compounds were performed with slight differences, according to the final use of the samples. For the cell viability assay with MTT, cells were seeded in 96-well flat-bottom plates in culture medium at 5 × 10^3 cells/well, whereas for cell cycle analysis and QRT-PCR cells were seeded in 24-well plates at 5 × 10^4 cells/well. The day after, a culture medium containing the appropriate amount of compounds or their solvent control DMSO was added, and treatments were carried out for the indicated time.
(§4) Cell viability after treatment was evaluated by a microculture tetrazolium reduction assay using MTT [3–(4,5-dimethyltiazol-2-yl) 2,5-diphenyltetrazolium bromide; Sigma]. At 72 h of treatment, 20 μl of MTT stock solution (2 mg/ml in PBS) were added to 200 μl cell cultures for an additional 4 h of incubation. MTT-containing culture medium was then removed and precipitated formazan was dissolved in 100 μl of DMSO. Results were read within 15 min in a microplate reader spectrometer at 540 nm (MEDGENIX 400 ATC, Medgenix Diagnostics), and the means of quadruplicates were calculated. Cell survival was expressed as a percentage of control samples.

In experiment [6] the test system is Mel270 cells. Nature of the experiment: MTT cell viability assay, UM cell line Mel270. Particulars: 72 h treatment, compared with SAHA and LD10. It counts as cell-based, human. The method, then: as §1, §2, §3, §4
Experiment [7] has as its system 92.1 cells. The experiment can be described thus: Cell cycle distribution by flow cytometry (PI), 92.1 cells. It counts as cell-based, human. Particulars: 10 µM compound, 48 h. The method, then: (§5) We then investigated whether this anti-proliferative effect was due to the blockade in the G0/G1 phase of the cell cycle, as expected for SAHA[31].
(§6) Figure 8. Influence of the different compounds and DMSO solvent control on cell cycle distribution in UM 92.1 and Mel270 cells. The cells were treated with 10 µM compound for 48 h and cell cycle distribution was analysed by flow cytometry after fixation and staining with PI. The percentage of cells in each category is indicated. One representative experiment is shown.
as §3
(§7) To assess the cell cycle status of treated samples, after 48 h of incubation the cells were harvested, washed twice with cold PBS, and fixed in 70% ethyl alcohol at −20 °C overnight. The day after, the samples were washed with cold PBS and incubated for 20 min with propidium iodide (PI) staining solution (50 μg/ml PI, 0.05% Triton X-100, 0.2 mg/ml RNase A in PBS) at room temperature. Flow cytometric analysis of DNA content was performed using a FACScan flow cytometer with the CellQuest software (BD Biosciences). Gating on viable cells was performed using physical parameters and 10^4 gated events were acquired. Cell cycle analysis on the gated PI distribution was performed using Modfit software.

Experiment [8] deals with Mel270 cells. The experiment can be described thus: Cell cycle distribution by flow cytometry (PI), Mel270 cells. It is filed as cell-based, human. Particulars: 10 µM compound, 48 h. How it is done:
as §5, §6, §3, §7

Experiment [9] concerns HDAC target genes (RAD54L, RAD51, CLU, DHRS2, CDKN1A) in 92.1 cells. Nature of the experiment: QRT-PCR of mRNA levels of HDAC target genes, 92.1 cells. It is filed as cell-based, human. The conditions noted are these: 10 µM compound, 48 h, normalised to GAPDH. The method, then:
(§8) Finally, we determined if the treatment of UM cells 92.1 and Mel270 with our compounds could modify the mRNA levels of HDAC target genes. […]
(§9) Figure 9. Modulation of RAD54L, RAD51 and CLU mRNA expression by the different compounds in UM cells 92.1 and Mel270. Cells were treated for 48 h with 10 µM compound or the corresponding amount of DMSO. Data, normalised to GAPDH housekeeping gene, are expressed as fold change relative to the DMSO control. Error bars represent SD of triplicates. One representative experiment is shown.
as §3
(§10) To assess the modulation of gene expression, cells were harvested at 48 h of treatment and total RNA was isolated using the NucleoSpin RNA kit (Macherey-Nagel) and reverse-transcribed with the SuperScript III Reverse Transcriptase (Invitrogen). […] Expression levels of mRNAs relative to untreated control were calculated by the ΔΔCT method (Table 3).

The subject of experiment [10] is HDAC target genes (RAD54L, RAD51, CLU) in Mel270 cells. The experiment can be described thus: QRT-PCR of mRNA levels of HDAC target genes, Mel270 cells. It is filed as cell-based, human. Particulars: 10 µM compound, 48 h, normalised to GAPDH. The method, then: as §8, §9, §3, §10

T2 sequence (O15379 whole entry): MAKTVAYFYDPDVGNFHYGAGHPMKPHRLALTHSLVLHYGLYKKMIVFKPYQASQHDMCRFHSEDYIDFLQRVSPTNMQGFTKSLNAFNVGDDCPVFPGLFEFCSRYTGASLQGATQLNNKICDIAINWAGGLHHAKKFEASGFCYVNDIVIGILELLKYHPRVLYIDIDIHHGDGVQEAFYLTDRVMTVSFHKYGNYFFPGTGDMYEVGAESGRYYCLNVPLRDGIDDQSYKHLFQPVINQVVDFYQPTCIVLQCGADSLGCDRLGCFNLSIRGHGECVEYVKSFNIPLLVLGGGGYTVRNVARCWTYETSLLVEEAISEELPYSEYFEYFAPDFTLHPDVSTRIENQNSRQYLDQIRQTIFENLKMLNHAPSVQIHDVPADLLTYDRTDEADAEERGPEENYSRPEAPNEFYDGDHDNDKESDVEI
T2 sequence (Q9Y618 395-489 partner limits assumed): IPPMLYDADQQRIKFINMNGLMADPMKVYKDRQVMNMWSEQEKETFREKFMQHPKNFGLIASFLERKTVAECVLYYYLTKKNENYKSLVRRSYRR
T1 sequence (Q13547 whole entry): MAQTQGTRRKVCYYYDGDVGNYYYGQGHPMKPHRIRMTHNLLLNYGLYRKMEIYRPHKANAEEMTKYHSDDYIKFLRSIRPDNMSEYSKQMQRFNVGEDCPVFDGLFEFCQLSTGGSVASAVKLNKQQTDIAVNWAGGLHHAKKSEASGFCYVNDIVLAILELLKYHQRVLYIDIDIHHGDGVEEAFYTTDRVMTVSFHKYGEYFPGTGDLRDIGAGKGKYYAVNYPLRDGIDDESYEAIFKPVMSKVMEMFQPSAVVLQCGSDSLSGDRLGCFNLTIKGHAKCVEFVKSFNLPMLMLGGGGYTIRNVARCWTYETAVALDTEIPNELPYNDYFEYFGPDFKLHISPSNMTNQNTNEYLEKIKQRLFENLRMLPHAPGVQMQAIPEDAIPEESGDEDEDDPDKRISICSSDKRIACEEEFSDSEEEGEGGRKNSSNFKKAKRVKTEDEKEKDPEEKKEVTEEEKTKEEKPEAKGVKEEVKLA

Regarding `O=C(CCCCO/N=C/c1cnc2ccccc2c1)NO` [Compound 2f, (E)-N-hydroxy-5-(((quinolin-3-ylmethylene)amino)oxy)pentanamide], the “folds more potent than SAHA” value in experiment [1] (HeLa extract IC50 compared with SAHA) is reported as 3- to 5 fold. For the same molecule, the IC50 in experiment [1] (means of at least three experiments, SD <20% of the mean) was found to be 54 nM; in experiment [2], 137 nM; in experiment [3] it was 40 nM; in experiment [4], 9290 nM. Moreover, the “effect on cell viability (MTT)” value in experiment [5] and in [6] was “stronger effect” in each case. The “effect on cell cycle distribution” value in experiment [7] and in experiment [8] was “efficiently block the cell cycle at the G0/G1 phase” in each case. Moreover, the “modulation of mRNA levels of HDAC target genes” value in experiment [9] is on record as “induced a pattern of gene modulation, which overlapped that of SAHA”; in experiment [10], “induced a pattern of gene modulation, which overlapped that of SAHA”.
